From patent US20050152835A1, “Technetium-99M glucarate methods of use for monitoring tissues” (priority 2003, published 2005)

System: MCF7/D40 tumor xenograft
Assay: FASTSPECT dynamic imaging and tumor washout kinetics, drug-resistant (Pgp positive) xenograft
Type: in vivo, SCID mice
Procedure: Tumor cell lines used. MCF7/S: Cells are parental, drug (doxorubicin) sensitive, breast carcinoma cells. MCF7/D40: Cells were generated in vitro by successive culturing parental MCF7 cells in slowly increasing concentrations of doxorubicin with a total selection time of 31 months. Twenty-eight SCID mice were studied. MCF7/S or MCF7/D40 tumors were grown for 10-14 days after subcutaneous injection of 1×10^6 cells into the right thigh. Groups of mice with the xenografted tumors included: (MCF7/S group: MIBI: n=9; GLA: n=8) and (MCF7/D40 group: MIBI: n=6; GLA: n=5).
The dynamic imaging system SPECT consisted of 24 small modular gamma cameras. Each modular camera consists of a 10 cm×10 cm NaI(Tl) scintillation crystal, 4 square (5 cm×5 cm) Hamamatsu photomultiplier tubes. The system included a cylindrical aperture with twenty four 1-mm diameter pinholes drilled in the aperture. A point source in the center of the field of view is projected simultaneously to the center of each camera. Total magnification is 3.5 in a 3.0 cm×3.2 cm×3.2 cm field of view. The spatial resolution of the system is about 1.0 mm, with a sensitivity of 13.3 cps/μCi.
^99mTc-GLA or ^99mTc-MIBI (5-8 mCi, 185-296 MBq) was injected via a jugular vein catheter. Dynamic images were acquired for 2 hours. Twenty-four projections were obtained, one from each camera. Each scintillation event within the camera's NaI crystal was registered as the digitized outputs from the camera's four photomultiplier tubes. The four photomultiplier outputs were compared to a 20-bit look-up table derived from a calibration procedure that involved moving a collimated source across the camera face.
Tumor image reconstruction was performed using 100 iterations of the maximum-likelihood expectation-maximization (ML-EM) algorithm. Using SlicerDicer software, three-dimensional images were computed to provide images in a 33×49×49 voxels format, and generate tomographic transaxial, coronal and sagittal slices with one-pixel thickness (1.0 mm). Regions of interest (ROI) over the tumors were created and applied to the dynamic images for determining time-activity curves. The percent washout rate relative to the peak uptake of the tumors were calculated.

Substance: ^99mTc-glucarate
- two-hour fractional washout (% peak activity): 71.9±2.9%
